This note sets out measurements from patent US20060142393A1, “Bis(thio-hydrazide amides) for treatment of hyperplasia” (priority 2004, published 2006).

One data set has as its system MES-SA/DX5. The data set can be described thus: MTS growth inhibition, multi-drug resistant MES-SA/DX5 cells. Type of data set: cell-based, human. As to conditions: for IC50: Homo sapiens. The method, then:
(§1) The in vitro activity of the compounds was assessed in a selected set of human cancer cell lines.
(§2) MES—SA, a model of uterine sarcoma, is sensitive to a number of chemotherapeutic agents, including Doxorubicin, Dactinomycin, Mitomycin C, Taxol™ and Bleomycin, but resistant to Vinblastine and Cisplatin. MES—SA/DX5 was established in the presence of increasing concentrations of Doxorubicin. […] Both MES—SA and MES—SA/Dx5 were purchased from ATCC (ATCC CRL-1976 and ATCC CRL-1977, respectively).
(§3) All experiments were performed on exponentially growing cell culture. Cell densities were 2.5×10^4 cells/ml in all experiment except special.

Data set [1] has as its system MES-SA/DX5 human sarcoma tumor. Briefly: MES-SA/DX5 human uterine sarcoma tumors in nude mice. Type of data set: in vivo. Particulars: 15 mg/kg intravenously, 3 times a week for 3 weeks. The method, then: A supplemented media was prepared from 50% DMEM/Dulbecco Modified Eagle Medium (High Glucose), 50% RPMI 1640, 10% FBS/Fetal Bovine Serum (Hybridoma Tested; Sterile Filtered), 1% L-Glutamine, 1% Penicillin-Streptomycin, 1% MEM Sodium Pyruvate and 1% MEM Non-Essential Amino Acids. FBS was obtained from Sigmna Chemical Co. and other ingredients were obtained from Invitrogen Life Technologies, USA). The supplemental media was warmed to 37° C. and 50 ml of media was added to a 175 cm^2 tissue culture flask.
The cells used in the assay were multi-drug resistant MES—SA/DX-5 Human Uterine Sarcoma cells from the American Type Culture Collection. 1 vial of MES—SA/DX-5 cells from the liquid nitrogen frozen cell stock was removed. The frozen vial of cells was immediately placed into a 37° C. water bath and gently swirled until thawed. The freeze-vial was wiped with 70% ethanol and cells were immediately pipetted into the 175 cm^2 tissue culture flask containing supplemented media. […]
The flask was washed with 10 ml of sterile room temperature phosphate buffered saline (PBS). […] The supernatant was aspirated and the cell pellet was resuspended in 10 ml of supplemented media and the cells were counted. […]
The above procedure for trypsinizing and centrifuging the cells were followed. The supernatant was aspirated and the cell pellet was resuspended in 10 ml of sterile PBS and the cells were counted. […]

In a further data set the test system is HL-60. Briefly: MTS growth inhibition, HL-60 cells. Type of data set: cell-based. Particulars: Homo sapiens, HL-60, 72 h, MTS assay. Here is the method:
(§4) The in vitro activity of the compounds was assessed in a selected set of human cancer cell lines. Three pairs of tumor cell lines (non-resistant/resistant) were used to identify novel potent antitumor compounds which are capable of overcoming multi-drug resistance.
(§5) HL-60, a model of myeloid leukemia, was obtained from ATCC (ATCC CCL-240); and HL60/TX1000 was isolated in vitro by subculturing HL-60 in progressively higher concentration of Taxol™. HL-60/TX1000 cells over-express mdr-1 mRNA and p-glycoprotein (PCP), as determined by western blot and immunofluorescence labeling with antiPGP antibodies. The cells are cross-resistant to Taxol™, Vincristine, Adriamycin, Etoposide and Doxorubicin.
as §3
A general note: Formazan colour is commonly taken as a measure of viable cells.

The subject of a further data set is HL-60/TX1000. The data set can be described thus: MTS growth inhibition, multi-drug resistant HL-60/TX1000 cells. Type of data set: cell-based, human. Particulars: for IC50: Homo sapiens, HL60/TX1000, 72 hours, MTS assay, MDR cell line. The method, then:
as §4, §5, §3

The test system of a further data set is Bowes. The data set can be described thus: MTS growth inhibition, Bowes melanoma cells. Particulars: Homo sapiens, 72 h, MTS assay. Format: cell-based. The method, then:
as §4
(§6) Bowes is a melanoma cell line; and Bowes/OV2 is a Vincristine resistant Bowes melanoma cell line.
as §3

In a further data set the test system is Bowes/OV2. The data set can be described thus: MTS growth inhibition, Vincristine resistant Bowes/OV2 cells. Type of data set: cell-based, human. Particulars: for IC50: Homo sapiens, 72 hours, MTS assay, MDR cell line. Here is the method:
as §4, §6, §3

Data set [2] concerns MDA-435 human breast tumor. The data set can be described thus: MDA-435 human breast carcinoma tumors in nude mice, combination with Epothilone D. Type of data set: in vivo. As to conditions: Compound (1) 50 mg/kg + Epothilone D 5 mg/kg intravenously, 3 times a week for 3 weeks.
Method: A supplemented media was prepared from 50% DMEM/Dulbecco Modified Eagle Medium (High Glucose), 50% RPMI 1640, 10% FBS/Fetal Bovine Serum (Hybridoma Tested; Sterile Filtered), 1% L-Glutamine, 1% Penicillin-Streptomycin, 1% MEM Sodium Pyruvate and 1% MEM Non-Essential Amino Acids. FBS was obtained from Sigma Chemical Co. and other ingredients were obtained from Invitrogen Life Technologies, USA). The supplemental media was warmed to 37° C and 50 ml of media was added to a 175 cm^2 tissue culture flask.
The cells used in the assay were MDA-435 Human Breast Carcinoma from the American Type Culture Collection. 1 vial of MDA-435 cells from the liquid nitrogen frozen cell stock was removed. The frozen vial of cells was immediately placed into a 37° C. water bath and gently swirled until thawed. The freeze-vial was wiped with 70% ethanol and cells were immediately pipetted into the 175 cm^2 tissue culture flask containing supplemented media. […]
A further data set relates to CEM. The data set can be described thus: MTS cytotoxicity, CEM T cell leukemia. Particulars: Homo sapiens, CCRF-CEM, 72 h, read-out: In vitro Cytotoxicity IC50, CEM. The method, then: (§7) The in vitro activity of the compounds was determined in a selected set of human leukemia cell lines. CEM (T-cell leukemia), Jurkat (T-cell leukemia), K562 (chronic myelocyte), THP-1 (monocyte), SB (B-cell leukemia), U937 (lymphoma) were purchased from ATCC. H2 leukemia cell line was a gift from Harvard Medical School. The cell lines were maintained in RPMI1640(GIBCO) supplemented with 10% FCS, 100 units/ml penicillin, 100 ug/ml streptomycin, and 2 mM L-glutamine. […] All experiments were performed on exponentially growing cell culture. Cell densities were 2.5×10^4 cells/mL in all experiments.
(§8) Final concentrations […] were obtained by diluting the stock solution directly into the tissue culture medium. Cells were incubated with varying concentrations of compounds for 72 hours and the IC50 was determined by MTS (i.e. […]) assay.

In the next data set the test system is SB. The data set can be described thus: MTS cytotoxicity, SB B cell leukemia. As to conditions: Homo sapiens, 72 h, read-out: In vitro Cytotoxicity IC50, SB. The method, then:
as §7, §8

In another data set the test system is CEM cells. Briefly: Human T-cell leukemia (CEM) growth in SCID mice, FACS quantitation of CEM cells in blood. Type of data set: in vivo. Particulars: 25 mg/kg intraperitoneally twice a day for 3 weeks; blood at day 33; CEM cells in white blood cells by FACS. From the text: Human T-cell leukemia cell line, CEM, was obtained from American Type Culture Collection. Eight-week old female SCID mice were purchased from Charles Rive Laboratories (Wilmington, Mass.). FITC conjugated anti-human […] was obtained from BD […]). ACK lysing buffer was obtained from BioWhittaker. […] After three weeks treatment, blood was taken from mouse retro-orbital sinus at day 33. Red blood cells were partially lyzed with ACK lysing buffer. The cells were stained with FITC conjugated anti-human […] antibody for one hour at 4° C. FACS analysis was performed to quantitate the amount of CEM cells in the blood. White blood cells were gated for FACS analysis.
A general note: Flow cytometry measures light scatter and fluorescence of single cells or particles in a stream.

The subject of another data set is MES-SA. The data set can be described thus: MTS growth inhibition, MES-SA cells. Type of data set: cell-based. As to conditions: Homo sapiens, 72 h, MTS assay. Here is the method: as §1, §2, §3
Data set [3] is described as follows: MTS cytotoxicity, 39SK normal fibroblast. Format: cell-based. Particulars: human, 39SK cells (normal fibroblast), MTS assay, read-out: In vitro Cytotoxicity IC50, 39SK.
The next data set deals with Jurkat. The data set can be described thus: MTS cytotoxicity, Jurkat T cell leukemia. Particulars: Homo sapiens, 72 h, read-out: In vitro Cytotoxicity IC50, Jurkat. Here is the method: as §7, §8
A further data set concerns K-562. Briefly: MTS cytotoxicity, K-562 chronic myelocyte. Format: cell-based. As to conditions: Homo sapiens, K562, 72 hours, MTS assay, read-out: In vitro Cytotoxicity IC50, K-562. Here is the method:
as §7, §8

The test system of another data set is THP-1. The data set can be described thus: MTS cytotoxicity, THP-1 monocyte. As to conditions: Homo sapiens, THP-1, 72 h, read-out: In vitro Cytotoxicity IC50, THP-1. Here is the method:
as §7, §8

Another data set concerns U937. Briefly: MTS cytotoxicity, U937 lymphoma. Type of data set: cell-based. As to conditions: Homo sapiens, U-937, 72 hours, MTS assay, read-out: In vitro Cytotoxicity IC50, U937. Here is the method:
as §7, §8

The next data set concerns H2. The data set can be described thus: MTS cytotoxicity, H2 leukemia. Format: cell-based. As to conditions: Homo sapiens, 72 hours, MTS assay, read-out: In vitro Cytotoxicity IC50, H2. Here is the method: as §7, §8
Where [4] appears, read: MES-SA/Dx5, read-out: IC50 MES/DX5.
[5] abbreviates: MES-SA/Dx5, Example 2, protocol of Example 1, MDR uterine sarcoma cell line, read-out: IC50 MES/DX5.
[6] abbreviates: MES-SA/Dx5, 72 hours, MTS assay, MDR cell line, read-out: IC50 MES-SA/DX5.

Read-outs that look alike come from different tables or passages of the source.

Consider `COc1ccc(C)c(C(=S)N(C)NC(=O)CC(=O)NN(C)C(=S)c2cc(OC)ccc2C)c1` [Compound (13)], for which the IC50 in the data set with MES-SA/DX5 (setting [4]) stood at 50 nM.

For the compound `CCN(NC(=O)C(C)C(=O)NN(CC)C(=S)c1ccccc1)C(=S)c1ccccc1` [Compound (16)], the IC50 with MES-SA/DX5 (setting [4]) came to 50 nM. In addition, the “toxicity (body weight suppression, behavior changes)” value in data set [1] is recorded as “no obvious toxicity”. In addition, in [1] (FIG. 1), the “tumor growth of MES/SA-DX5 compared to vehicle treated mice” value was “significantly inhibits the tumor growth”.

For the compound `CN(NC(=O)CC(=O)NN(C)C(=S)C1CC1)C(=S)C1CC1` [(18)], in the data set with MES-SA/DX5 (setting [5]), the IC50 was found to be 10 nM.

On to `CN(NC(=O)CC(=O)NN(C)C(=S)c1ccccc1)C(=S)c1ccccc1` [Compound (1)], for which the IC50 was found to be 5 nM in the data set on MES-SA/DX5 (MES-SA/Dx5, 72 h, read-out: IC50 MES-SA/DX5); 400 nM in the data set with HL-60; 50 nM with HL-60/TX1000; 200 nM with Bowes; 10 nM in the data set on Bowes/OV2; 10 nM in the data set on CEM. The IC50 in the data set on SB stood at 5 nM. For the same compound, in the data set with MES-SA/DX5 (IC50 MES-SA / IC50 MES-SA/DX5 (=0.05/0.005)), the “specificity against MES-SA/DX5” value is listed as 10. Moreover, the “specificity against HL60/TX1000” value with HL-60/TX1000 (IC50 HL-60 / IC50 HL-60/TX1000 (=0.4/0.05)) is listed as 8. Moreover, the “specificity against Bowes/OV2” value in the data set with Bowes/OV2 (IC50 Bowes / IC50 Bowes/OV2 (=0.2/0.01)) was found to be 20. In addition, the “effect on anti-tumor activity of Epothilone D” value in [2] (FIG. 2) is reported as “significantly enhanced anti-tumor activity of Epothilone D”. For the same compound, the “toxicity of combination with Epothilone D (body weight)” value in data set [2] (FIG. 3) is “without increasing toxicity”. Also, the “% circulating leukemia cells” value in the data set with CEM cells was ~4.6%.

For the compound `CC[C@]1(O)C[C@H]2CN(CCc3c([nH]c4ccccc34)[C@@](C(=O)OC)(c3cc4c(cc3OC)N(C=O)[C@H]3[C@@](O)(C(=O)OC)[C@H](OC(C)=O)[C@]5(CC)C=CCN6CC[C@]43[C@@H]65)C2)C1` [Vincristine], the IC50 with MES-SA is 2 to 5 nM; in the data set on MES-SA/DX5 (setting [6]), 5000 nM; in the data set on HL-60, 2 to 5 nM; with HL-60/TX1000, 5000 nM; in the data set with Bowes, 2 to 5 nM; in the data set with Bowes/OV2, 5000 nM. Moreover, the IC50 in the data set on Jurkat is 1 nM; with CEM, 5 nM; in the data set with K-562, 5 nM; in the data set on THP-1, 5 nM; in the data set with U937 it was 5 nM; in the data set on SB it was 1 nM. Besides, in the data set with H2, the IC50 amounted to 5 nM. Further, in data set [3], the IC50 at 72 h came to 1000 nM.

For the compound `CC(=O)O[C@H]1C(=O)[C@@]2(C)[C@H]([C@H](OC(=O)c3ccccc3)[C@]3(O)C[C@H](OC(=O)[C@H](O)[C@@H](NC(=O)c4ccccc4)c4ccccc4)C(C)=C1C3(C)C)[C@]1(OC(C)=O)CO[C@@H]1C[C@@H]2O` [Taxol ™, paclitaxel], the IC50 is 5000 nM in the data set on MES-SA/DX5 (setting [6]); 5000 nM in the data set on MES-SA/DX5 (setting [5]); 2 to 5 nM in the data set with HL-60; 5000 nM with HL-60/TX1000; 5000 nM in the data set on Bowes/OV2; 1 nM in the data set with Jurkat. For the same compound, the IC50 amounted to 10 nM with CEM; 5 nM with K-562; 5 nM in the data set with THP-1; 5 nM in the data set with U937; 1 nM with SB; 5 nM in the data set with H2. Moreover, the IC50 at 72 h in [3] amounted to 1000 nM.

On to `COc1cccc(C(=S)N(C)NC(=O)C(C)C(=O)NN(C)C(=S)c2cccc(OC)c2OC)c1OC` [Compound (12)], for which, in the data set with MES-SA/DX5 (setting [4]), the IC50 came out at 5 nM.

Consider `CN(NC(=O)CC(=O)NN(C)C(=S)c1cc(Cl)ccc1Cl)C(=S)c1cc(Cl)ccc1Cl` [Compound (14)], for which the IC50 with MES-SA/DX5 (setting [4]) came out at 10 nM.
